Results: patent publication EP0293814A1, “Mono- and polyhydroxyacyl derivatives of polyoxygenated labdanes, a process for their production and their use as drugs” (HOECHST AKTIENGESELLSCHAFT, priority 1987, dated 1988)

Test: Lowering of intraocular pressure, Schiotz tonometry
Assay type: in vivo
Excerpt: Die Labdane der vorliegenden Anmeldung eignen sich zur Behandlung des erhöhten Augeninnendrucks, weil sie, wie mit der Schiotz-Tonometrie nachgewiesen, die Eigenschaft besitzen, den Augeninnendruck herabzusetzen (s. Capriol. J., Sears, M., Lancet, 1, (1983) 958 - 96).
Die Wirksamkeit einiger repräsentativer Verbindungen gemäß der Erfindung ist als prozentuale Senkung des Augeninnendrucks ausgedrückt und in Tab. 2 dargestellt.

Row | SMILES | Senkung des Augeninnendrucks (%) (Konzentration 2 %) | Senkung des Augeninnendrucks (%) (Konzentration 0,1 %) | Senkung des Augeninnendrucks (%) (Konzentration 0,5 %) | Senkung des Augeninnendrucks (%) (Konzentration 0,25 %) | Erniedrigung des Augeninnendrucks (in words, compared with the other substances of the invention (Tab. 2))
1 | C=C[C@@]1(C)CC(=O)[C@]2(O)[C@@]3(C)[C@@H](O)CCC(C)(C)[C@@H]3[C@H](O)[C@H](OC(=O)COCC)[C@@]2(C)O1 [compound 1] | 31 |  |  |  | 
2 | C=C[C@@]1(C)CC(=O)[C@]2(O)[C@@]3(C)[C@@H](O)CCC(C)(C)[C@@H]3[C@H](OC(=O)COCC)[C@H](O)[C@@]2(C)O1 [compound 2] | 20 |  |  |  | 
3 | C=C[C@@]1(C)CC(=O)[C@]2(O)[C@@]3(C)[C@@H](OC(=O)COC=O)CCC(C)(C)[C@@H]3[C@H](O)[C@H](OC(=O)COC=O)[C@@]2(C)O1 [compound 5] | 26 |  |  |  | 
4 | C=C[C@@]1(C)CC(=O)[C@]2(O)[C@@]3(C)[C@@H](O)CCC(C)(C)[C@@H]3[C@H](O)[C@H](OC(=O)[C@H](O)CO)[C@@]2(C)O1 [compound 7] | 27 | 17 | 25 | 24 | wesentlich besser erniedrigt als die anderen Substanzen der Erfindung
